{"source": "paper doi:10.64898/2026.03.17.711623", "about": "“Polypharmacology is an enduring and nearly universal property of kinase inhibitors” (bioRxiv, 2026)", "target": "T1, YES (Homo sapiens, UniProt P07947)", "T1 construct": "gene YES1", "T1 sequence (P07947 whole entry)": "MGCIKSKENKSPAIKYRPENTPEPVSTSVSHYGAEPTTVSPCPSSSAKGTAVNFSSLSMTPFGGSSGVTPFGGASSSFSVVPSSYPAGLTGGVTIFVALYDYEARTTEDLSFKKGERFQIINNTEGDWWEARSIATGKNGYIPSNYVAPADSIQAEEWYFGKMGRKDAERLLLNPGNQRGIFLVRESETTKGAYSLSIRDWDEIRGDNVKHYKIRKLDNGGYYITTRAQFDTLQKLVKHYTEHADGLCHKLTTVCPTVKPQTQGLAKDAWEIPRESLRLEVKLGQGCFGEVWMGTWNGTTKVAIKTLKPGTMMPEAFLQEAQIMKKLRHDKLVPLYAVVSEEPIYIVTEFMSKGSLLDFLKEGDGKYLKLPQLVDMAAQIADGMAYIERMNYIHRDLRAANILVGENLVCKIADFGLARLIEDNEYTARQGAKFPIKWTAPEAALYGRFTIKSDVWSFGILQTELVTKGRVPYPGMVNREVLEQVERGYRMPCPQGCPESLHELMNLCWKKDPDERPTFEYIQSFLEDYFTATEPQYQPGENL", "note": "pKd: −log10 of the molar value."}
{"smiles": "Cc1cc(C(=O)Nc2cc(Oc3ccc4nc(NC(=O)C5CC5)cn4n3)ccc2C)n(C)n1", "note": "[HMSL12071, TAK-593]", "values": [{"measurement": "pKd", "result": 6.37}]}
